SMILES strings stand for the structures.

One assay has as its target T1, P498W/P499W mutant USP (Drosophila melanogaster, UniProt P20153, P498W/P499W).
T1 construct: His tag; made in house; host or cells: bacteria (pET32EK vector)
The assay can be described thus: Intrinsic tryptophan fluorescence ligand-binding assay, P498W/P499W mutant USP. Conditions: excitation 290 nm, emission 340 nm. Here is the method: The homodimer-enriched fraction of bacterial recombinant His-dUSP fusion protein was purified by nickel resin selection, elution with imidazole, centrifugal concentration, and then gel permeation chromatography (Superdex 200) with procedures and chemical sources exactly as already described previously Jones et al. (2000) Insect Biochem. Mol. Biol. 30, 671-679. The homodimer-enriched fraction of the purified His-USP fusion protein was raised to 2 ml of NaCl and a final concentration of 0.5 μm. For a fluorescence-based ligand-binding assay based on intrinsic tryptophan fluorescence Jones et al. (2001) Insect Biochem. Mol. Biol. 32, 33-49; Jones et al (1998) Biochem. J. 335, 79-84; 79-84; Jones et al. (2000) Biochem. J. 346, 233-240; Jones et al (1997) Proc. Natl. Acad. Sci. USA 94, 13499-13503, ligand or ethanol carrier was added and the receptor preparation excited at 290 nm and monitored for emission at 340 nm, until the signal from the receptor had stabilized. Fluorescence was measured three times for each sample, with standard deviation typically smaller than the graphical plotted datum point. Each fluorescence experiment was replicated on three or more independent occasions, each time with similar results. […]

Assay [1] concerns the target T2, His-tagged wild-type dUSP (Drosophila melanogaster, UniProt P20153).
T2 construct: His tag; made in house; host or cells: bacteria (pET32EK vector)
T2 sequence (P20153 1-508): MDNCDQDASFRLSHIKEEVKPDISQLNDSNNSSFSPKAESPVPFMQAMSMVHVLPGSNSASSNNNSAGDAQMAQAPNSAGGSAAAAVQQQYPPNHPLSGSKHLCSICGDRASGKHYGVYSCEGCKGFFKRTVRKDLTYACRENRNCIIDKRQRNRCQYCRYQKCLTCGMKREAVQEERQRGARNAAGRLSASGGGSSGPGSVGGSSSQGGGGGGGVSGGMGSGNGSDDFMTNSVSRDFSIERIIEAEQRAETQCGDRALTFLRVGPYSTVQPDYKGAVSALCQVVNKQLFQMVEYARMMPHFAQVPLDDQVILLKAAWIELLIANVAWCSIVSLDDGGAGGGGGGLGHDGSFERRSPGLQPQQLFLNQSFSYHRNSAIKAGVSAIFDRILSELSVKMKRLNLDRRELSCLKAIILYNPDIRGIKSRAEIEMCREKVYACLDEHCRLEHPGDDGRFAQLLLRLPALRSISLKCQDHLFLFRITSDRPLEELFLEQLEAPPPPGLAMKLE
Briefly: Intrinsic tryptophan fluorescence ligand-binding assay, wild-type dUSP. Conditions: excitation 290 nm, emission 340 nm, 0.5 μm receptor. Here is the method: (§1) The homodimer-enriched fraction of bacterial recombinant His-dUSP fusion protein was purified by nickel resin selection, elution with imidazole, centrifugal concentration, and then gel permeation chromatography (Superdex 200) with procedures and chemical sources exactly as already described previously Jones et al. (2000) Insect Biochem. Mol. Biol. 30, 671-679. The homodimer-enriched fraction of the purified His-USP fusion protein was raised to 2 ml of NaCl and a final concentration of 0.5 μm. For a fluorescence-based ligand-binding assay based on intrinsic tryptophan fluorescence Jones et al. (2001) Insect Biochem. Mol. Biol. 32, 33-49; Jones et al (1998) Biochem. J. 335, 79-84; 79-84; Jones et al. (2000) Biochem. J. 346, 233-240; Jones et al (1997) Proc. Natl. Acad. Sci. USA 94, 13499-13503, ligand or ethanol carrier was added and the receptor preparation excited at 290 nm and monitored for emission at 340 nm, until the signal from the receptor had stabilized. Fluorescence was measured three times for each sample, with standard deviation typically smaller than the graphical plotted datum point. Each fluorescence experiment was replicated on three or more independent occasions, each time with similar results.
(§2) The ability of the wild-type dUSP and dominant negative, ligand-binding pocket mutant dUSP to bind methyl epoxyfarnesoate was tested.

Assay [2] concerns Core promoter reporter with DR1, DR4 or DR12 nuclear hormone response element in Sf9 cells. To be noted: previous studies; cited from earlier work.
A further assay concerns the target T3, C472A/H475L mutant dUSP (Drosophila melanogaster, UniProt P20153, C472A/H475L).
T3 construct: His tag; made in house; host or cells: bacteria (pET32EK vector)
The assay can be described thus: Intrinsic tryptophan fluorescence ligand-binding assay, C472A/H475L mutant dUSP. To be noted: 75 μm ligand; excitation 290 nm, emission 340 nm. Here is the method:
as §1, §2

For assay [3], the system named is Core promoter reporter with DR1, DR4 or DR12 nuclear hormone response element in Sf9 cells. The assay can be described thus: Sf9 cell transfection assay: methyl epoxyfarnesoate activation of DR-enhancer/Core promoter luciferase reporter. The assay is classed as cell-based, Spodoptera frugiperda. Conditions: transfected Sf9 cells, 75 μm methyl epoxyfarnesoate. Here is the method:
Spodoptera frugiperda cell line, Sf9, was maintained and transfected as described previously Jones et al (1998) Biochem. J. 335, 79-84; Jones et al. (2000) Biochem. J. 346, 233-240. As an internal control to compare activities of different constructs, 0.3 μg of a constituitive heat-shock promoter-driven β-galactosidase gene was cotransfected. To study the role of USP in activation of the nuclear hormone receptor response element fused to core promoter in methyl epoxyfarnesoate-treated cells, cloned D. melangaster USP (dUSP) cDNA and its derivatives containing mutations in the ligand-binding pocket were cotransfected with the reporter and internal control plasmids. […] After 48 h of the treatment, the cells were harvested and the activity of the luciferase reporter was measured using a luciferase assay kit (Promega) in a multipurpose scintillation counter (Beckman, Fullerton, Calif.). β-Galactosidase activity was measured using chlorophenol red-[…] monosodium (CPRG; Roche Molecular Biochemicals) as a colorimetric substrate.
The sequences and characteristics of the core promoter ([…]) of the JHE gene were described by Jones et al. (2001) Insect Biochem. Mol. Biol. 32, 33-49; Jones et al (1998) Biochem. J. 335, 79-84; 79-84; Jones et al. (2000) Biochem. J. 346, 233-240. The core promoter responds to respond to methyl epoxyfarnesoate through a heterologous 5′ flanking direct repeat motif in cell transfection assay. This Core promoter reporter was cloned into KpnI/BglII sites of pGL3. An NheI site was then placed immediately 5′ to the KpnI site, and multiple direct repeat (DR) sequences were cloned into the NheI site by the following method. […] Upon annealing, the double stranded oligonucleotides would then have a CTAG overhang at each 5′ end. The annealed oligonucleotides were then ligated into concatamers, fractionated by native PAGE and the gel fractions corresponding to higher concatamer forms recovered and ligated into the NheI site. Specific DR sequences for the oligonucleotides were (upper strand) for DR1: 5′-CAAGGTCAAAGGTCAG-3′ (SEQ ID NO: 13), for DR4: 5′-CAAGGTCAAGAAAGGTCAG-3′ (SEQ ID NO: 14), for DR12: 5′-[…]-3′ (SEQ ID NO: 15; CTAG on 5′ ends not shown). The recovered YDRXCore constructs (X representing 1, 4 or 12 intervening bases; Y representing the number of tandem pairs of direct repeats) were verified by sequencing. The intervening sequences in the DR1 and DR4 motifs were randomly chosen, while the DR12 sequence used is found in the ecdysteroid-sensitive ng-1 and ng-2 genes that are expressed during metamorphosis of D. melanogaster, and can serve in vitro as a binding site for the various receptor dimers involving USP (ecdysteroid receptor (EcR)/USP heterodimer, USP/DHR38 heterodimer and USP/USP homodimer. […]

T3 sequence (P20153 whole entry C472A/H475L): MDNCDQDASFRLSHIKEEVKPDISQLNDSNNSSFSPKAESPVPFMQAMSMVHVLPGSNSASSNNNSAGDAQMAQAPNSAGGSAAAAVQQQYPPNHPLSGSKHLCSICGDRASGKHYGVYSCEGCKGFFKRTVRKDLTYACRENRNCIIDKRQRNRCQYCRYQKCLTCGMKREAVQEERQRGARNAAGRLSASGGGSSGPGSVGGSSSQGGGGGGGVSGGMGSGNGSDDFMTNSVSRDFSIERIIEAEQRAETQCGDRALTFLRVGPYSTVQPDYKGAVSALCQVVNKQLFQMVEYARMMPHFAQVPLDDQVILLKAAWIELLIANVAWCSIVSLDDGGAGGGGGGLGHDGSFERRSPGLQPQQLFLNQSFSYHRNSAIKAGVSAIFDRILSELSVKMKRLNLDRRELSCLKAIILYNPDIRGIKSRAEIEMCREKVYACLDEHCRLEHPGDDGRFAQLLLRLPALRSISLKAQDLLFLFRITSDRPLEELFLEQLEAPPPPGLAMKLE
T1 sequence (P20153 whole entry P498W/P499W): as the sequence (P20153 whole entry C472A/H475L) above, with A472C, L475H, P498W, P499W counted along it

With `COC(=O)C=C(C)CCC=C(C)CCC1OC1(C)C` (stereo not drawn) [methyl epoxyfarnesoate], on P498W/P499W mutant USP, the “effect on receptor intrinsic fluorescence, P498W/P499W mutant USP” value was “sharply increasing in fluorescence before then decreasing”. Further, in assay [1], the “effect on receptor intrinsic fluorescence (ligand binding), wild-type dUSP” value is reported as “suppressed the fluorescence”. Further, in assay [1] (listed as Methyl epoxyfarnesoate), the “effect on receptor intrinsic fluorescence (ligand binding), wild-type dUSP” value is reported as “suppression of receptor fluorescence”. The “concentration of maximum effect (dose dependent)” value in assay [2] is given as around 75 μm. Further, the “effect on receptor intrinsic fluorescence (ligand binding), C472A/H475L mutant dUSP” value at C472A/H475L mutant dUSP is recorded as “did not exhibit a significant response”. In assay [3], the “induction in promoter activity, four tandem copies of DR1 motif” value came out at 2.5 fold; the “induction in promoter activity, four tandem copies of DR4 motif” value stood at 3.5 fold; the “responsiveness of 1DR12mutCore (both DR12 half sites mutated)” value is given as “no greater than the background of a Core promoter with no enhancer”. Also, the “induction in promoter activity, 4DR12Core construct” value in assay [3] (four tandem DR12 motifs) amounted to 10 fold.

Source of the values: patent US7259254B2, “Mutants and assay system to identify USP/RXR ligands” (University of Kentucky Research Foundation, priority 2002, dated 2007).
